Assay results from ChEMBL document CHEMBL4152224, “The Identification of Potent, Selective, and Orally Available Inhibitors of Ataxia Telangiectasia Mutated (ATM) Kinase: The Discovery of AZD0156 (8-{6-[3-(Dimethylamino)propoxy]pyridin-3-yl}-3-methyl-1-(tetrahydro-2 H-pyran-4-yl)-1,3-dihydro-2 H-imidazo[4,5- c]quinolin-2-one)” (J Med Chem, 2018).
Values after ≈ are worked out from the molar mass of the structure shown.

Legend:
[1] = Intrinsic clearance in rat hepatocytes assessed per million cells
[2] = Intrinsic clearance in human hepatocytes assessed per million cells
[3] = in vitro; conditions: dog, MDCK-MDR1
Description: Efflux ratio of apparent permeability across basolateral to apical over apical to basolateral side in MDCK cells overexpressing MDR1

[4] = Thermodynamic solubility of the compound in 0.1M aqueous phosphate buffer at pH 7.4 after 24 hrs by LC-UV analysis; type: physicochemical; conditions: read-out: Therm_solubility
[5] = Apparent permeability across apical to basolateral side in MDCK cells overexpressing MDR1; type: ADME, cell-based, Canis lupus familiaris; conditions: dog
[6] = target: Serine-protein kinase ATM (Homo sapiens, UniProt Q13315)
[7] = target: Voltage-gated inwardly rectifying potassium channel KCNH2 (Homo sapiens, UniProt Q12809); experiment: Inhibition of human ERG by electrophysiology assay
[8] = Buffer/octanol partition coefficient, log D of the compound at pH 7.4 by shake flask method; type: physicochemical
[9] = target: Serine/threonine-protein kinase ATR (Homo sapiens, UniProt Q13535)
[10] = Dissociation constant, pKa of the compound; type: physicochemical

Serine-protein kinase ATM, sequence (Q13315 whole entry): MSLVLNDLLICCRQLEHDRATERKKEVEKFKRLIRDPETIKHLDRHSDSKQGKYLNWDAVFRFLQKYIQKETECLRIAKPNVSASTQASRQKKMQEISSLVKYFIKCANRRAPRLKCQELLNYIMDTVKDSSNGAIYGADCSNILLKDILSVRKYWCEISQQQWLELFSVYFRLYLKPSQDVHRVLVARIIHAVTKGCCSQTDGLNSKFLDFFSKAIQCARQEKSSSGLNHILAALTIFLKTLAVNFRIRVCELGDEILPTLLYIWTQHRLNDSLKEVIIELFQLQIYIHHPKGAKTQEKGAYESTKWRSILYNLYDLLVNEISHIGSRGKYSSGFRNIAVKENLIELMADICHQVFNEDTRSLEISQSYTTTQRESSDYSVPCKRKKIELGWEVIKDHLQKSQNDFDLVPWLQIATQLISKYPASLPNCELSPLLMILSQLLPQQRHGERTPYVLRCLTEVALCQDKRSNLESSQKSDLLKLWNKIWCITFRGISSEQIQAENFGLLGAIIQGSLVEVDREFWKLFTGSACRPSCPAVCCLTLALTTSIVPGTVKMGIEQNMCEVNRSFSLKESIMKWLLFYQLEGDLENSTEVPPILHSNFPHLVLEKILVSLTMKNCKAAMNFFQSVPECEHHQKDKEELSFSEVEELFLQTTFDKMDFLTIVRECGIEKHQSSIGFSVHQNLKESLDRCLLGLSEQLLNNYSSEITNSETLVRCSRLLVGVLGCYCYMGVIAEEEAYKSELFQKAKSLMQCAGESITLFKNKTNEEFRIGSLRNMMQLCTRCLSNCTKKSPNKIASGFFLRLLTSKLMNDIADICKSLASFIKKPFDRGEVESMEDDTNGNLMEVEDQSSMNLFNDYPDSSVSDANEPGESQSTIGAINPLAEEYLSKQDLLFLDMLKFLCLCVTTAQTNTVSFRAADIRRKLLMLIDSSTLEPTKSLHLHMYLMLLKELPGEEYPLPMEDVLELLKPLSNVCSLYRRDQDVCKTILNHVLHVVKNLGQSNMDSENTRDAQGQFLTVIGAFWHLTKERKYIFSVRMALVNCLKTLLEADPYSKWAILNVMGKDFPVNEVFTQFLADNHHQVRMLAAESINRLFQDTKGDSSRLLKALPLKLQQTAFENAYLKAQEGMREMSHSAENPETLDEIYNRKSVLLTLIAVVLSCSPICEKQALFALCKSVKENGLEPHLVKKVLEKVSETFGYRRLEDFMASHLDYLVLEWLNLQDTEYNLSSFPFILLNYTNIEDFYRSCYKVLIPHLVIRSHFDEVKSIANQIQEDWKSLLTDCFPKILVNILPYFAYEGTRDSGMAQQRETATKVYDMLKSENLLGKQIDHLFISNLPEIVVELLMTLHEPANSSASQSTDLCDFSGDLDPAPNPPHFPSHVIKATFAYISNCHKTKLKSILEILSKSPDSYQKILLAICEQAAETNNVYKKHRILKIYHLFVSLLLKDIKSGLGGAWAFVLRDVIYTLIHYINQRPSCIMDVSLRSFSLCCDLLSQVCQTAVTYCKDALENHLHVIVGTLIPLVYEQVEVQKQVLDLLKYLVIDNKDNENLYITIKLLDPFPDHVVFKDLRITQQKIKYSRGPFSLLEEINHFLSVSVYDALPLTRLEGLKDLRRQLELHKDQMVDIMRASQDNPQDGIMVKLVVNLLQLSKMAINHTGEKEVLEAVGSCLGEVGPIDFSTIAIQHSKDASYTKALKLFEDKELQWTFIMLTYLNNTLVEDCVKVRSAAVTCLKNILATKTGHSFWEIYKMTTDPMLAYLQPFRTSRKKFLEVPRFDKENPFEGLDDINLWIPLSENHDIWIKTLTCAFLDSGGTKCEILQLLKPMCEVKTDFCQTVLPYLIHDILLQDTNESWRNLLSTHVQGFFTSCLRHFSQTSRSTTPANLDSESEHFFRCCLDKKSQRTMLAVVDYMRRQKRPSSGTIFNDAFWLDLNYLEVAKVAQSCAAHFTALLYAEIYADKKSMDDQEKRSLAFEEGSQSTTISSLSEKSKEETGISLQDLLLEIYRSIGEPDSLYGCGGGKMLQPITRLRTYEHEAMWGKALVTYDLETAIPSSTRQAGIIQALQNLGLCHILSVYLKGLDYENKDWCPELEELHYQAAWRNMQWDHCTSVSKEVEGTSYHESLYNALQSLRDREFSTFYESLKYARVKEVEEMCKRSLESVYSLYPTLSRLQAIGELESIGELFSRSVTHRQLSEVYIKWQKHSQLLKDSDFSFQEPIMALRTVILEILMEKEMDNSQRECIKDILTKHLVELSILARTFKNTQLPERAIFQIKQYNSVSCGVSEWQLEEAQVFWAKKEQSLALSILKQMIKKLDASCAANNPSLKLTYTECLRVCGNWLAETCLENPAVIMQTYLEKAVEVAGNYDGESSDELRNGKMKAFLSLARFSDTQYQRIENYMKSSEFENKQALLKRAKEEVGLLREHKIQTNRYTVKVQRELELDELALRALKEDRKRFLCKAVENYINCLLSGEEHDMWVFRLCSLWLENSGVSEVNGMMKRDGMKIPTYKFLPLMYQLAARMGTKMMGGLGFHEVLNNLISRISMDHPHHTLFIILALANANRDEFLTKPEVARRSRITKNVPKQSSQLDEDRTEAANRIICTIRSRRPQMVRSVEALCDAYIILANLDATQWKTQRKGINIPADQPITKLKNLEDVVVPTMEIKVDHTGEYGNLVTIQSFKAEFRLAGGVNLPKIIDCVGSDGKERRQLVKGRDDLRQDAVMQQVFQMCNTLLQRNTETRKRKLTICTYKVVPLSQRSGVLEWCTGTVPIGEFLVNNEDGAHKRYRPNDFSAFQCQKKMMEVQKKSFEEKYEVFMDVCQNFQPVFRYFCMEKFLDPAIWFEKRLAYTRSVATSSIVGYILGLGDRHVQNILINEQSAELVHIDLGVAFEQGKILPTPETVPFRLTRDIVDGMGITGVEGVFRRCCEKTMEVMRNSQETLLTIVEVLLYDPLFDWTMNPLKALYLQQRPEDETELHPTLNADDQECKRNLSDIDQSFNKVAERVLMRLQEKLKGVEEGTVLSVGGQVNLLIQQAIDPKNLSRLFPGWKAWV
Voltage-gated inwardly rectifying potassium channel KCNH2, sequence (Q12809 whole entry): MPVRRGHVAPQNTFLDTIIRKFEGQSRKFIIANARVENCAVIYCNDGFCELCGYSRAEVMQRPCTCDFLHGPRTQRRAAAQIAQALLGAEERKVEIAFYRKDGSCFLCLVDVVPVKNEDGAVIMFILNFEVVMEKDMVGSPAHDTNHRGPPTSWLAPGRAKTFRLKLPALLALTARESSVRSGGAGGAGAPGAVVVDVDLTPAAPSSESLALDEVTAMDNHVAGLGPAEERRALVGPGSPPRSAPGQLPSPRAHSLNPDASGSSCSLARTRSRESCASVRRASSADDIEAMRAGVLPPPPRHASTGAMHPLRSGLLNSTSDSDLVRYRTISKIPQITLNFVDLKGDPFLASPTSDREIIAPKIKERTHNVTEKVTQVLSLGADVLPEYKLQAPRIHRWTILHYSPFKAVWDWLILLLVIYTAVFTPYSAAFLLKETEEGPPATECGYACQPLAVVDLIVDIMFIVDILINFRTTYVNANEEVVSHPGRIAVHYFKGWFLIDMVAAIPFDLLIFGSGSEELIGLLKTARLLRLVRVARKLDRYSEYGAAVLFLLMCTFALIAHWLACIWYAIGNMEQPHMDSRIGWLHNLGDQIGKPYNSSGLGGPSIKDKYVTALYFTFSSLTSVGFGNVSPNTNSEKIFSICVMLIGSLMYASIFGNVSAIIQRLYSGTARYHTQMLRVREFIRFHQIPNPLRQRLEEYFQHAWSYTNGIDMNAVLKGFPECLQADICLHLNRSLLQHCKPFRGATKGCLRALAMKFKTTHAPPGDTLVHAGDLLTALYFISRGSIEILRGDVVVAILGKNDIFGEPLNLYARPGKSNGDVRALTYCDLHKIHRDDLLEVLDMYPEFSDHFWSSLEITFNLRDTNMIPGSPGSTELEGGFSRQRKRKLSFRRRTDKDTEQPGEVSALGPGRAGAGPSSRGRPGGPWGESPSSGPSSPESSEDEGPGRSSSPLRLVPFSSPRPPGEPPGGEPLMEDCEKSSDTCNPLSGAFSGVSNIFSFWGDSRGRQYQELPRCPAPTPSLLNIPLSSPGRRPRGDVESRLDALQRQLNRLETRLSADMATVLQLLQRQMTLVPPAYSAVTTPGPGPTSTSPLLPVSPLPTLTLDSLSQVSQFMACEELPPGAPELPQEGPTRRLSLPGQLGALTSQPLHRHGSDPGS

| hepatocyte CLint [1] [µL/min/1e6 cells] | hepatocyte CLint [2] [µL/min/1e6 cells] | efflux ratio [3] | solubility thermodynamic at 24 h [4] [µM] | Papp A→B [5] [×10⁻⁶ cm/s] | IC50 [6] [µM] | logD [8] | IC50 [9] [µM] | pKa [10] | SMILES | IC50 [7] [µM] |
| --- | --- | --- | --- | --- | --- | --- | --- | --- | --- | --- |
| 6.2 | 4 | 1.4 | 330 (≈ 171 µg/mL) | 7.1 | 0.0011 | 2.4 |  |  | Cn1c(=O)n([C@H]2CCCOC2)c2c3cc(-c4ccc(OCCCN5CCCCC5)nc4)c(F)cc3ncc21 | 18 |
| < 1.3 | 5.3 | 9.4 | > 1100 | 2.5 | 0.00017 | 1.8 | > 24 |  | CO[C@H]1C[C@@H](n2c(=O)n(C)c3cnc4ccc(-c5ccc(OCCCN6CCCC6)nc5)cc4c32)C1 | > 33 |
| 4 | 3 |  | > 1000 | 5.4 |  | 2.2 |  |  | CO[C@H]1C[C@@H](n2c(=O)n(C)c3cnc4ccc(-c5ccc(OCCCN6CCCCC6)nc5)cc4c32)C1 | 14 |
| 63 | < 3 |  | 19 (≈ 7.68 µg/mL) | 32 |  | 2.3 | > 13 |  | COCc1ccc(-c2ccc3ncc4c(c3c2)n(C2CCOCC2)c(=O)n4C)cn1 | > 33 |
|  |  | 8.7 |  | 12 |  |  |  |  | COCc1ccc(-c2cc3c(N[C@@H](C)c4ccn(C)n4)c(C(N)=O)cnc3cc2F)cn1 |  |
|  |  |  |  |  | 0.005 |  | 10 |  | Cn1c(=O)n(C2CCOCC2)c2c3cc(-c4ccc(OCCC[N+](C)(C)[O-])nc4)ccc3ncc21 |  |
| 7 | 6.5 | 77 | 870 (≈ 441 µg/mL) | 0.4 | 0.0082 | 1.1 | > 30 |  | CO[C@H]1C[C@@H](n2c(=O)n(C)c3cnc4cc(F)c(-c5ccc(NC(=O)CCCN(C)C)nc5)cc4c32)C1 | 18 |
| 9 | 14 | 2.5 | > 1000 | 10 |  | 2.1 |  |  | CO[C@H]1C[C@@H](n2c(=O)n(C)c3cnc4cc(F)c(-c5ccc(OCCCN(C)C)nc5F)cc4c32)C1 | 22 |
| 9.6 | 2.8 | 11 | > 1000 | 3.4 | 0.006 | 1.7 | > 30 |  | CO[C@H]1C[C@@H](n2c(=O)n(C)c3cnc4cc(F)c(-c5ccc(NCCN(C)C)nc5)cc4c32)C1 | 24 |
| 2.5 | 3.3 | 7.8 | 770 (≈ 365 µg/mL) | 3.5 |  | 1.4 | > 24 |  | CO[C@H]1C[C@@H](n2c(=O)n(C)c3cnc4ccc(-c5ccc(OCCCN6CCC6)nc5)cc4c32)C1 | > 33 |
| 9.3 | 15 |  | > 1100 | 4.2 |  | 2 |  |  | CO[C@H]1C[C@@H](n2c(=O)n(C)c3cnc4ccc(-c5ccc(OCCCN(C)C)nc5F)cc4c32)C1 | > 33 |
| 9.2 | 12.8 |  |  |  | 0.0017 | 1.6 | 2 |  | CN(C)CCCOc1ccc(-c2ccc3ncc4c(c3n2)n(C2CCOCC2)c(=O)n4C)cn1 |  |
| 2.4 |  | 2.4 | 18 (≈ 8.47 µg/mL) | 14 | 0.16 | 1.3 | > 16 |  | CO[C@H]1C[C@@H](n2c(=O)n(C)c3cnc4cc(F)c(-c5ccc(CS(C)(=O)=O)nc5)cc4c32)C1 | 14 |
| 5 |  | 1.1 | 23 (≈ 9.39 µg/mL) | 29 | 0.23 | 2 | 15 |  | CO[C@H]1C[C@@H](n2c(=O)n(C)c3cnc4cc(F)c(-c5ccc(CO)nc5)cc4c32)C1 | 23 |
| 6.6 | 7.9 | 6.2 | > 980 | 6.8 |  | 1.8 |  | 9.3 | CO[C@H]1C[C@@H](n2c(=O)n(C)c3cnc4cc(F)c(-c5ccc(OCCCN(C)C)nc5)cc4c32)C1 | > 33 |
| 8.3 | 6.8 | 4.4 | > 1000 | 7.9 |  | 1.5 |  |  | CN(C)CCCOc1ccc(-c2cc3c(cc2F)ncc2c3n(C3CCOCC3)c(=O)n2C)cn1 | > 33 |
| 10 | 10 | 0.6 | 84 (≈ 37.8 µg/mL) | 20 | 0.24 | 3.2 | > 26 |  | COCc1ccc(-c2cc3c(cc2F)ncc2c3n([C@H]3CC[C@H](OC)CC3)c(=O)n2C)cn1 | 27 |

| hepatocyte CLint [1] [µL/min/1e6 cells] | hepatocyte CLint [2] [µL/min/1e6 cells] | efflux ratio [3] | solubility thermodynamic at 24 h [4] [µM] | Papp A→B [5] [×10⁻⁶ cm/s] | IC50 [6] [µM] | logD [8] | IC50 [9] [µM] | pKa [10] | SMILES | IC50 [7] [µM] |
| --- | --- | --- | --- | --- | --- | --- | --- | --- | --- | --- |
|  |  | 28 |  | 0.8 | 0.0086 | 2.8 | > 30 |  | CCC(CC)CNc1c(C(N)=O)cnc2cc(F)c(-c3cnc(NCCN4CCCC4)nc3)cc12 |  |
| 5.1 | 5.3 | 2.2 | 310 (≈ 161 µg/mL) | 6.4 | 0.0012 | 2.1 | > 29 |  | Cn1c(=O)n(C2CCOCC2)c2c3cc(-c4ccc(OCCCN5CCCCC5)nc4)c(F)cc3ncc21 | > 33 |
| 4.8 | 4.4 | 41 | 930 (≈ 416 µg/mL) | 0.65 |  | 0.4 |  | 10.3 | CNCCCOc1ccc(-c2ccc3ncc4c(c3c2)n([C@H]2C[C@@H](OC)C2)c(=O)n4C)cn1 | > 33 |
|  |  |  | 41 (≈ 15.9 µg/mL) |  | > 30 | 2.9 | > 27.6 |  | CC(C)n1c(=O)n(C2CCOCC2)c2c3cc(-c4cccnc4)ccc3ncc21 |  |
| < 1 |  |  | 750 (≈ 388 µg/mL) |  | 27 | 0.6 | > 30 | 8.4 | CO[C@H]1C[C@@H](n2c(=O)n(C)c3cnc4ccc(-c5ccc(OCCCN6CCC(O)CC6)nc5)cc4c32)C1 |  |
| 7.8 | < 1 | 9.8 | 52 (≈ 22.5 µg/mL) | 3.2 |  | 0.7 |  |  | CN(C)CCCOc1ccc(-c2ccc3ncc4c(c3c2)n(C2COC2)c(=O)n4C)cn1 | > 33 |
| 3 | 6.1 |  | > 1000 | 6.5 |  | 1.8 |  |  | CN(C)CCCOc1ccc(-c2ccc3ncc4c(c3c2)n([C@H]2CCCOC2)c(=O)n4C)cn1 | 27 |
| 2.9 | 4 | 11 | 980 (≈ 483 µg/mL) | 2.5 | 0.13 | 1.5 | > 30 |  | CO[C@H]1C[C@@H](n2c(=O)n(C)c3cnc4cc(F)c(-c5ccc(C(=O)NCCN(C)C)nc5)cc4c32)C1 | > 33 |
| 1.6 | 22 | 0.8 | > 1000 | 27 | 0.49 | 2.7 | > 30 |  | COCc1ccc(-c2cc3c(cc2F)ncc2c3n([C@@H](C)C3CCOCC3)c(=O)n2C)cn1 | 15 |
| 2.5 | < 1 |  |  |  | 0.022 | 0.8 | > 30 |  | CN(C)CCCOc1ccc(-c2ccc3nnc4c(c3c2)n(C2CCOCC2)c(=O)n4C)cn1 |  |
| 3.7 | 5.6 |  | > 1000 | 7.5 |  | 1.8 | > 23 |  | CN(C)CCCOc1ccc(-c2ccc3ncc4c(c3c2)n([C@@H]2CCCOC2)c(=O)n4C)cn1 | > 33 |
| 4.3 | 8.4 | 0.6 | 49 (≈ 20.7 µg/mL) | 28 | 0.16 | 3 | > 28 |  | COCc1ccc(-c2cc3c(cc2F)ncc2c3n([C@H]3C[C@H](OC)C3)c(=O)n2C)cn1 | 8.9 |
| 6 | 2.7 | 2.6 | 270 (≈ 110 µg/mL) | 14 | 0.14 | 2 | > 30 |  | COCc1ccc(-c2cc3c(cc2F)ncc2c3n([C@H]3C[C@@H](O)C3)c(=O)n2C)cn1 | 15 |
|  |  |  | 12 (≈ 4.16 µg/mL) |  |  | 2.4 | 0.051 |  | O=c1[nH]c2cnc3ccc(-c4cccnc4)cc3c2n1C1CCOCC1 |  |
| 7.5 | < 4 | 0.8 | 99 (≈ 41.8 µg/mL) | 43 | 0.45 | 2.4 | > 20 |  | COCc1ccc(-c2cc3c(cc2F)ncc2c3n(C3CCOCC3)c(=O)n2C)cn1 | 27 |
| 2.7 | 3.5 | > 100 | > 1000 | < 0.2 |  | 1.1 |  |  | CN(C)CCCOc1ccc(-c2ccc3ncc4c(c3c2)n([C@H]2C[C@@H](O)C2)c(=O)n4C)cn1 | > 33 |
| 18 | 5.1 |  | > 1000 | 6.3 | 0.23 | 2.2 | > 30 |  | CO[C@H]1C[C@@H](n2c(=O)n(C)c3cnc4cc(F)c(-c5ccc(N(C)CCN(C)C)nc5)cc4c32)C1 |  |
